Reference: patent US6417327B1, “Peptide capable of regulating physiological function of FGF-5 and pharmaceutical composition containing the peptide” (Agency of Industrial Science and Technology, priority 1999, dated 2002)
No end group written: not given here.

What was measured:
FGF-5 = assay: Determination of DNA-synthesis-inhibiting activity (uptake of tritium, 3HTdR) in the presence of recombinant FGF-5; type: cell-based, mouse; conditions: Balb/c3T3 cells, test solution FGF-5(+) with heparin 5 μg/ml, recombinant FGF-5 10^-10 M, peptide 10^-7 to 10^-3 M
Procedure: (§1) Balb/c3T3 cells (1.5×10^4 cells/500 μl) were plated on a 24-well culture plate and cultured in a DMEM medium for 24 hours in the presence o f 10% FCS. After washing the cells with the medium, a DMEM medium containing 0.3% FCS was added thereto to further culture the cells for 24 hours to synchronize the cells. To the mixture, test solutions [FGF-5(+)] containing heparin (5 μg/ml), one of FGF-5 peptides 1-5 synthesized in Example 1 (10^−7 to 10^−3 M) and the recombinant FGF-5 prepared in Reference Example 1 (10^−10 M) were added. After 16 hours of cultivation, 3 HTdR was added, and the cells were further cultured for 4 hours in a CO2 incubator. The supernatants were aspirated. The cells were washed with PBS, added with 10% TCA (125 μl), and incubated at room temperature. After confirming the immobilization of the cells, the supernatants were discarded. Five-hundred ul of 0.5N NaOH was added and the mixture was further incubated at room temperature for an hour, added with 3 ml scintillator and determined for the uptake of tritium into the cells with a liquid scintillation counter.
As controls for the determinations of inhibiting and promoting activities, a test solution containing heparin (5 μg/ml) and the recombinant FGF-5 (10^−10 M) prepared in Reference Example 1 was used.

Balb/c3T3 cells = assay: Determination of DNA-synthesis-promoting activity (uptake of tritium, 3HTdR) without FGF-5; type: cell-based; conditions: test solution FGF-5(-) with heparin, peptide 10^-7 to 10^-3 M, without the addition of FGF-5
Procedure: as §1
The uptake of tritium into cells was determined as described in (1) above with a liquid scintillation counter except that test solutions [FGF-5(−)] containing heparin and one of FGF-5 peptides 1-5 synthesized in Example 1 were used. […]

platelets = assay: Determination of thrombocytosis activity (number of platelets); type: in vivo; conditions: ICR mice, intraperitoneal; for increase of platelet: 1 μg/kg
Procedure: ICR mice (male, 6 weeks old, weights 29-32 g) were grouped into 4 groups of six mice. A test solution containing the above-mentioned FGF-5 peptide 6 was intraperitoneally administered for 10 successive days.
The peptide (3.3 mg/ml) in an injection solution (0.9% saline containing 100 μg/ml bovine serum albumin (Fraction V)) was administered to the mice at 0.3 ml/mouse (33 mg/kg) At the same time, human recombinant thrombopoietin solution (0.1 μg/ml) and human recombinant interleukin 6 solution (0.1 μg/ml) were prepared, and intraperitoneally administered for 0.3 ml per mouse (1 μg/kg). Five μl of blood was collected from the caudal vein of each mouse, and immediately mixed with 20 μl of 3.8% sodium citrate in a test tube. Subsequently, the blood mixtures were serially diluted twice with Cellpack and determined for the number of platelets, as well as to determine the numbers of erythrocytes and hemacrit values with Sysmex F-820 (TOA Electronics Ltd.)

mouse bone marrow cells = assay: Differentiating and proliferating activities to give megakaryocytes (increase of acetylcholineesterase activity); type: cell-based; conditions: cultured 4 days, acetylcholineesterase activity by fluorescence
Procedure: The differentiating and proliferating activities to give megakaryocytes were determined for this peptide, as the increase of acetylcholineesterase activity, by using mouse bone marrow cells as follows.
Bone marrow cells were taken from femur of ICR mouse (male, 6 weeks old), suspended in RPMI 1640 medium containing 1% fetal calf serum (FCS), and centrifuged. The supernatant was removed and the resultant was suspended in RPMI 1640 medium containing 0.5 mM DFP (diisopropylfluorophosphate) and 0.1% BSA (bovine serum albumin), and left to stand at room temperature for 20 min. Thereafter, the cells were washed with the same culture twice and suspended in RPMI 1640 medium containing 1% Neutridoma-SP and 0.1% BSA such that the number of cells was 2×10^6 cells/ml. The thus-prepared bone marrow cell suspension was dispensed in 100 μl into a 96-well culture plate, and cultured with a test solution containing 50 μl of FGF-5 peptide 6 at 37° C. for 4 days in the presence of 5% CO2.
Thereafter, the supernatant was removed, and the resultant was washed with PBS(−) twice and added with 180 μl 50 mM HEPES buffer (pH 7.6) containing 0.2% (w/v) Triton X-100 and 0.12 M NaCl and with 20 ul solution containing 5.6 mM acetylthiocholine iodide. […]

HEANMLSQVHR [FGF-5 peptide 4]
DNA-synthesis-inhibiting activity (FGF-5): inhibited DNA synthesis

HEANMLS [FGF-5 peptide 3]
DNA-synthesis-promoting activity (Balb/c3T3 cells): promoted DNA synthesis

Gln Val His Arg (QVHR; SEQ ID NO3 represents a partial sequence (corresponding to amino acids 120-123) of the amino acid sequence of human FGF-5S.) [FGF-5 peptide 5]
DNA-synthesis-inhibiting activity (FGF-5): inhibited DNA synthesis

human recombinant interleukin 6: human recombinant interleukin 6 solution (0.1 μg/ml), comparator in the platelet test
increase of platelet (platelets): about 1.6 fold

human recombinant thrombopoietin: human recombinant thrombopoietin solution (0.1 μg/ml), comparator in the platelet test
increase of platelet (platelets): about 1.6 fold

Pro Asp Gly Lys Val Asn Gly Ser His Glu Ala Asn Met Leu Ser GIn Val His Arg (PDGKVNGSHEANMLSQVHR; SEQ ID NO10 represents a partial sequence of the amino acid sequence of human FGF-5.) [FGF-5 peptide 1]
DNA-synthesis-promoting activity (Balb/c3T3 cells): promoted DNA synthesis

PDGKVNGSHEANM [FGF-5 peptide 6]
differentiating and proliferating activities to give megakaryocytes (mouse bone marrow cells): exerts differentiating and proliferating activities to give megakaryocytes | increase of the numbers of platelets (platelets; 33 mg/kg, 10 successive days, two to 4 days after the administration): 1.6 folds
